Assay results taken from ChEMBL document CHEMBL4177690, “(E)-3-(3,4,5-Trimethoxyphenyl)-1-(pyridin-4-yl)prop-2-en-1-one, a heterocyclic chalcone is a potent and selective CYP1A1 inhibitor and cancer chemopreventive agent” (Bioorg Med Chem Lett, 2017).

How the values were obtained:
Cytochrome P450 2B6 = biological target: T1, Cytochrome P450 2B6 (Homo sapiens, UniProt P20813); experiment: Inhibition of human CYP2B6 expressed in yeast cells; format: ADME, cell-based
T1 sequence (P20813 whole entry): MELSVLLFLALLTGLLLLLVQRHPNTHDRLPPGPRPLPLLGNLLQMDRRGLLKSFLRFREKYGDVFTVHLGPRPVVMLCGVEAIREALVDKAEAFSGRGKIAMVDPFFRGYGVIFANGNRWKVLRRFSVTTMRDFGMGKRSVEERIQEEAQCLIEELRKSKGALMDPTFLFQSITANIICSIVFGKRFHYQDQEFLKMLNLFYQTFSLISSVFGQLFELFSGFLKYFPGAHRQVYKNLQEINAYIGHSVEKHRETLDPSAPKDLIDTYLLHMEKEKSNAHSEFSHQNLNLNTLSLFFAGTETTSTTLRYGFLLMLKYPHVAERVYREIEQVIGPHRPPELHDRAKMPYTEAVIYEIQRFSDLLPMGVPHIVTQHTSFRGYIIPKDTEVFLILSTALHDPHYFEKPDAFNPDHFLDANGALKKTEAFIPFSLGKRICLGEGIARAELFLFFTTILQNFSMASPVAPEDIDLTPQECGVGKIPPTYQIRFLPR

Homo sapiens = organism: Homo sapiens; experiment: Selectivity ratio of IC50 for recombinant human CYP1A2 expressed in HEK293 cells to IC50 for recombinant human CYP1A1 expressed in HEK293 cells; format: cell-based
Cytochrome P450 2E1 = Cytochrome P450 2E1 (Homo sapiens, UniProt P05181); experiment: Inhibition of human CYP2E1 expressed in yeast cells; format: ADME, cell-based
Cytochrome P450 2E1, sequence (P05181 whole entry): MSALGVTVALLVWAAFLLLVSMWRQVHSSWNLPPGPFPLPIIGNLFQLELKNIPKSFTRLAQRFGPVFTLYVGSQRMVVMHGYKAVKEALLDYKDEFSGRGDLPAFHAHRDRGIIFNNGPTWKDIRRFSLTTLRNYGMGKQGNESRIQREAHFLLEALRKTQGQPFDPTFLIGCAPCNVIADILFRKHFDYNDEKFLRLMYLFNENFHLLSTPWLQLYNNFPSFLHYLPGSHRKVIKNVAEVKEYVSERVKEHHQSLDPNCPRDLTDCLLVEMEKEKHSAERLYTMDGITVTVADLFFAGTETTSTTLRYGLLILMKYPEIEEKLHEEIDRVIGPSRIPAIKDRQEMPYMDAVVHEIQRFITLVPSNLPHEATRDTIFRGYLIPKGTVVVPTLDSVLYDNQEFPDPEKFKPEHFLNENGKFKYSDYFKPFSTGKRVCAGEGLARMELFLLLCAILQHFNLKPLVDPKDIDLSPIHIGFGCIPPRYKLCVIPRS

Cytochrome P450 1A2 [1] = biological target: T2, Cytochrome P450 1A2 (Homo sapiens, UniProt P05177); experiment: Inhibition of human CYP1A2 expressed in yeast microsomal membranes using 3-cyano-7-ethoxycoumarin as substrate measured after 10 mins by fluorescence assay; format: ADME, cell membranes, Microsomal Membrane
T2 sequence (P05177 whole entry): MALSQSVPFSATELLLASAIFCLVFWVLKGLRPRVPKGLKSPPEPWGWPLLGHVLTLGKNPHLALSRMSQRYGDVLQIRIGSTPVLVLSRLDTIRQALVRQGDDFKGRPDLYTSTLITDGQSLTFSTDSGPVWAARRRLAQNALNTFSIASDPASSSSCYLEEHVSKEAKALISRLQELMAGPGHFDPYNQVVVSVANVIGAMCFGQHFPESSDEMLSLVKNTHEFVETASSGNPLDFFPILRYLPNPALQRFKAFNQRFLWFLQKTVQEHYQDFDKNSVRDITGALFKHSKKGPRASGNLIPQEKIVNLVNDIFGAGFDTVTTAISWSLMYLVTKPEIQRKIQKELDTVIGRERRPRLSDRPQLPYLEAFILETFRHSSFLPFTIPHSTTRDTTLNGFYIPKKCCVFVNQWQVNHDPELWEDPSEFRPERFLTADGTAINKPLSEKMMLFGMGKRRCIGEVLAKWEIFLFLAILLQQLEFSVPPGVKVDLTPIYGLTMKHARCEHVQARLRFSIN

Cytochrome P450 1A1 = biological target: T3, Cytochrome P450 1A1 (Homo sapiens, UniProt P04798); experiment: Inhibition of human CYP1A1 expressed in yeast microsomal membranes using 7-ethoxyresorufin as substrate measured after 10 mins by fluorescence assay; format: cell membranes
T3 sequence (P04798 whole entry): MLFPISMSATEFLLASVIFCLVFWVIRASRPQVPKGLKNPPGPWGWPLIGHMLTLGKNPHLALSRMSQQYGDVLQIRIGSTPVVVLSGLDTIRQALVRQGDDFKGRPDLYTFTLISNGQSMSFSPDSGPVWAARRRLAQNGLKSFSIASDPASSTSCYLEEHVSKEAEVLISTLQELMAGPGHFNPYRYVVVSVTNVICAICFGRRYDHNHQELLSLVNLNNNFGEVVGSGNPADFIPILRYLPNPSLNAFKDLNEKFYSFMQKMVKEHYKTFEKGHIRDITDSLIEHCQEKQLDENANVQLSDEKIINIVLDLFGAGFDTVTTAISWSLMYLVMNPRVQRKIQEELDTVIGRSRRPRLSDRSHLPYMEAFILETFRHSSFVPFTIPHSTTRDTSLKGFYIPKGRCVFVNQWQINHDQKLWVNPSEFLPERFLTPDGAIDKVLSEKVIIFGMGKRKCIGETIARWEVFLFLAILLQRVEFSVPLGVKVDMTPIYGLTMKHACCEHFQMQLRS

Cytochrome P450 1B1 = biological target: T4, Cytochrome P450 1B1 (Homo sapiens, UniProt Q16678); experiment: Inhibition of recombinant human CYP1B1 expressed in HEK293 cells using 7-ethoxyresorufin as substrate pretreated for 30 mins followed by substrate addition measured for 60 mins by fluorescence assay; format: cell-based
T4 sequence (Q16678 whole entry): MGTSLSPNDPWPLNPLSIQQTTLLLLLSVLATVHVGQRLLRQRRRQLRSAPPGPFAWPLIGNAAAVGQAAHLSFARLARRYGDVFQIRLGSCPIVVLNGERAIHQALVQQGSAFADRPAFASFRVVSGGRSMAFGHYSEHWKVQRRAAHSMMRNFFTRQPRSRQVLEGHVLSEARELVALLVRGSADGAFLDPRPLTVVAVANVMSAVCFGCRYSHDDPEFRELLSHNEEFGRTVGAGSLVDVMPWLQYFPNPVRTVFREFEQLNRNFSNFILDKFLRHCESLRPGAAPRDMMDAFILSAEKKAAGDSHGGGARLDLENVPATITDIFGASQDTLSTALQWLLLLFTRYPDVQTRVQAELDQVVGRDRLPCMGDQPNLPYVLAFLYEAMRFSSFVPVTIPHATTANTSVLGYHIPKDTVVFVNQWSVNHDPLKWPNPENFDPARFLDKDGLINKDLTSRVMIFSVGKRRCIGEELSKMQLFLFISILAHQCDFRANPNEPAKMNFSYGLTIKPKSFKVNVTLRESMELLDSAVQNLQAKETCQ

Cytochrome P450 1A2 [2] = biological target: T2, Cytochrome P450 1A2; experiment: Inhibition of recombinant human CYP1A2 expressed in HEK293 cells using 3-cyano-7-ethoxycoumarin as substrate pretreated for 30 mins followed by substrate addition measured for 60 mins by fluorescence assay; format: ADME
Cytochrome P450 2J2 = biological target: T5, Cytochrome P450 2J2 (Homo sapiens, UniProt P51589); experiment: Inhibition of human CYP2J2 expressed in yeast cells; format: ADME, cell-based
T5 sequence (P51589 whole entry): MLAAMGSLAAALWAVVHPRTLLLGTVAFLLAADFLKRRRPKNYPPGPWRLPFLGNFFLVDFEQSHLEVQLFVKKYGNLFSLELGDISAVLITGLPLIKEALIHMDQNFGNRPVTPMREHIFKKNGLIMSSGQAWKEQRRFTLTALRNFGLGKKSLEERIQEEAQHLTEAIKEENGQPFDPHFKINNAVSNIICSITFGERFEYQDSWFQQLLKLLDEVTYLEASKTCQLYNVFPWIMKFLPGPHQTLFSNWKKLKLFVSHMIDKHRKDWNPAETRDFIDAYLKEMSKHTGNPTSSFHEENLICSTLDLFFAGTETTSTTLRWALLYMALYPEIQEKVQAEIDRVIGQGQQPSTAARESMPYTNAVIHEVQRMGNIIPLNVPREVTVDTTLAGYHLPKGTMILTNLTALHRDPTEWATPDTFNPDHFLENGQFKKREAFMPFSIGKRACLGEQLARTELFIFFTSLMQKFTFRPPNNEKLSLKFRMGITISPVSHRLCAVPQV

COc1cc(/C=C/C(=O)c2ccncc2)cc(OC)c1OC showed an IC50 (Cytochrome P450 2B6) of over 10 µM, a Ratio IC50 (Homo sapiens) of under 10 and an IC50 (Cytochrome P450 2E1) of over 10 µM. The IC50 (Cytochrome P450 1A2 [1]) was 1.09 µM, the IC50 (Cytochrome P450 1A1) was 0.061 µM and the IC50 (Cytochrome P450 1B1) was 8.18 µM. The IC50 (Cytochrome P450 1A2 [2]) was 1.12 µM and the IC50 (Cytochrome P450 2J2) was over 20 µM.
